Assay results taken from US20090148512A1, “NOVEL USES OF CHLORAMPHENICOL AND ANALOGOUS THEREOF” (LANNETT CO INC, priority 2007, published 2009).
Values after ≈ are worked out from the molar mass of the structure shown. Like-named read-outs stand apart in the source and are kept apart here.

Tests used:
C. difficle = assay: In vitro activity (MIC) against 25 clinical strains of C. difficile; assay type: cell-based; details: for MIC50 / MIC90: Clostridioides difficile
MRSA = assay: In vitro activity (MIC) against MRSA strains collected in 2005; assay type: cell-based, Staphylococcus aureus; details: for % resistance / % susceptible: CLSI (2007) criteria
[1] = system: susceptible Staphylococcus aureus (MSSA); assay: In vitro activity (MIC) against susceptible Staphylococcus aureus (MSSA) strains collected in 2005; assay type: cell-based; details: for % resistance / % susceptible: CLSI (2007) criteria
[2] = North America 2005, 1,158 strains
[3] = North America and Europe 2005, 1,644 strains
[4] = Staphylococcus aureus, MRSA, North America 2005, 1,158 strains, read-out: MIC90
[5] = Staphylococcus aureus, MRSA, North America and Europe 2005, 1,644 strains, read-out: MIC50
[6] = Staphylococcus aureus, MRSA, North America and Europe 2005, 1,644 strains, read-out: MIC90
[7] = North America 2005, 1,232 strains
[8] = North America and Europe 2005, 2,276 strains
[9] = Staphylococcus aureus, MSSA, North America and Europe 2005, 2,276 strains, read-out: MIC50
[10] = Staphylococcus aureus, MSSA, North America and Europe 2005, 2,276 strains, read-out: MIC90

Compound	MIC50 (MRSA; [2])	% resistance (MRSA; [2]) [%]	% susceptible (MRSA; [2]) [%]	% resistance (MRSA; [3]) [%]	% susceptible (MRSA; [3]) [%]	MIC90 (MRSA; [4]) [µg/mL]	MIC50 (MRSA; [5]) [µg/mL]	MIC90 (MRSA; [6]) [µg/mL]	MIC50 ([1]; Europe 2005, 1,044 strains)	MIC90 ([1]; Europe 2005, 1,044 strains)	% resistance ([1]; Europe 2005, 1,044 strains) [%]	% susceptible ([1]; Europe 2005, 1,044 strains) [%]	MIC50 [1, 7]	MIC90 [1, 7]	% resistance [1, 7] [%]	% susceptible [1, 7] [%]	% resistance [1, 8] [%]	% susceptible [1, 8] [%]	MIC50 [1, 9] [µg/mL]	MIC90 [1, 10] [µg/mL]	further results
Cc1ncc([N+](=O)[O-])n1CCO [Metronidazole]																					% resistant (C. difficle; 25 clinical strains): 00%; % susceptible (C. difficle; 25 clinical strains): 100%; MIC50 (C. difficle): 0.25 µM (≈ 0.0428 µg/mL); MIC90 (C. difficle): 0.5 µM (≈ 0.0856 µg/mL)
C[C@H]1COc2c(N3CCN(C)CC3)c(F)cc3c(=O)c(C(=O)O)cn1c23 [Levofloxacin]	>4 µg/mL	71.7	26.4	77.4	20.6	> 4	> 4	> 4	≦0.5 μg/ml	≦0.5 μg/ml	6.8	93.0	≦0.5 μg/ml	≦0.5 μg/ml	6.6	93.0	6.7	93.0	≤ 0.5	≤ 0.5	
CN[C@H](CC(C)C)C(=O)N[C@H]1C(=O)N[C@@H](CC(N)=O)C(=O)N[C@H]2C(=O)N[C@H]3C(=O)N[C@H](C(=O)N[C@H](C(=O)O)c4cc(O)cc(O)c4-c4cc3ccc4O)[C@H](O)c3ccc(c(Cl)c3)Oc3cc2cc(c3O[C@@H]2O[C@H](CO)[C@@H](O)[C@H](O)[C@H]2O[C@H]2C[C@](C)(N)[C@H](O)[C@H](C)O2)Oc2ccc(cc2Cl)[C@H]1O [Vancomycin]	1 µg/mL (≈ 0.69 µM)	0.0	100	0.0	100		1 (≈ 0.69 µM)	1 (≈ 0.69 µM)	1 µg/mL (≈ 0.69 µM)	1 µg/mL (≈ 0.69 µM)	0.0	100	1 µg/mL (≈ 0.69 µM)	1 µg/mL (≈ 0.69 µM)	0.0	100	0.0	100	1 (≈ 0.69 µM)	1 (≈ 0.69 µM)	MIC90 (MRSA; [2]): 1 µg/mL (≈ 0.69 µM); Range (MIC) ([1]; Europe 2005, 1,044 strains): ≦0.12-2; Range (MIC) [1, 7]: ≦0.25-2; Range (MIC) [1, 8]: ≦0.12-2
CN(C)[C@@H]1C(O)=C(C(N)=O)C(=O)[C@@]2(O)C(O)=C3C(=O)c4c(O)cccc4[C@@](C)(O)[C@H]3C[C@@H]12 [Tetracycline]	≦2 μg/ml	7.0	92.5	10.3	88.8	≤ 2	≤ 2	> 8	≦2 μg/ml	≦2 μg/ml	6.5	93.3	≦2 μg/ml	≦2 μg/ml	2.7	96.8	4.4	95.2	≤ 2	≤ 2	
CCC[C@@H]1C[C@@H](C(=O)N[C@@H]([C@H]2O[C@H](SC)[C@H](O)[C@@H](O)[C@H]2O)[C@H](C)Cl)N(C)C1 [Clindamycin]	≦0.25 μg/ml	44.3	55.5	45.3	54.6	> 2	≤ 0.25	> 2	≦0.25 μg/ml	≦0.25 μg/ml	3.2	96.6	≦0.25 μg/ml	≦0.25 μg/ml	4.8	95.0	4.0	95.7	≤ 0.25	≤ 0.25	
CC[C@H]1OC(=O)[C@H](C)[C@@H](O[C@H]2C[C@@](C)(OC)[C@@H](O)[C@H](C)O2)[C@H](C)[C@@H](O[C@@H]2O[C@H](C)C[C@H](N(C)C)[C@H]2O)[C@](C)(O)C[C@@H](C)C(=O)[C@H](C)[C@@H](O)[C@]1(C)O [Erythromycin]	>8 µg/mL	94.8	4.8	89.2	10.2	> 8	> 8	> 8		>8 µg/mL	13.3	86.2		>8 µg/mL	28.0	70.8	21.3	77.9		> 8	
O=C(N[C@H](CO)[C@H](O)c1ccc([N+](=O)[O-])cc1)C(Cl)Cl [chloramphenicol, Chloramphenicol]	8 µg/mL (≈ 24.8 µM)	0.4	92.3	1.9	91.5	8 (≈ 24.8 µM)	8 (≈ 24.8 µM)	8 (≈ 24.8 µM)	8 µg/mL (≈ 24.8 µM)	8 µg/mL (≈ 24.8 µM)	1.4	98.4	8 µg/mL (≈ 24.8 µM)	8 µg/mL (≈ 24.8 µM)	0.0	99.4	0.7	98.9	8 (≈ 24.8 µM)	8 (≈ 24.8 µM)	% resistant (C. difficle; 25 clinical strains): 8.0%; % susceptible (C. difficle; 25 clinical strains): 88.0%; MIC50 (C. difficle; 25 clinical strains, read-out: MIC50): 4 µM (≈ 1.29 µg/mL); MIC90 (C. difficle; 25 clinical strains, read-out: MIC90): 16 µM (≈ 5.17 µg/mL)
